Experimental data: the kinase profiling compilation of Christmann-Franck et al. (2016)

Assays:
Assay in all cases: radiometric filter-binding kinase assay, Kinase HotSpot
Conditions in all cases: compound 0.5 µM; ATP 10 µM
[1] = target: ABL2 (human) (UniProt P42684)
[2] = target: BRAF (human) (UniProt P15056)
[3] = target: CAMK2D (human) (UniProt Q13557)
[4] = target: CDK4 CCND1 (human) (UniProt P24385+P11802)
[5] = target: CHEK1 (human) (UniProt O14757)
[6] = target: CLK4 (human) (UniProt Q9HAZ1)
[7] = target: CSNK2A2 (human) (UniProt P19784)
[8] = target: DYRK1B (human) (UniProt Q9Y463)
Sequence of DYRK1B (human) (Q9Y463 whole entry, looked up): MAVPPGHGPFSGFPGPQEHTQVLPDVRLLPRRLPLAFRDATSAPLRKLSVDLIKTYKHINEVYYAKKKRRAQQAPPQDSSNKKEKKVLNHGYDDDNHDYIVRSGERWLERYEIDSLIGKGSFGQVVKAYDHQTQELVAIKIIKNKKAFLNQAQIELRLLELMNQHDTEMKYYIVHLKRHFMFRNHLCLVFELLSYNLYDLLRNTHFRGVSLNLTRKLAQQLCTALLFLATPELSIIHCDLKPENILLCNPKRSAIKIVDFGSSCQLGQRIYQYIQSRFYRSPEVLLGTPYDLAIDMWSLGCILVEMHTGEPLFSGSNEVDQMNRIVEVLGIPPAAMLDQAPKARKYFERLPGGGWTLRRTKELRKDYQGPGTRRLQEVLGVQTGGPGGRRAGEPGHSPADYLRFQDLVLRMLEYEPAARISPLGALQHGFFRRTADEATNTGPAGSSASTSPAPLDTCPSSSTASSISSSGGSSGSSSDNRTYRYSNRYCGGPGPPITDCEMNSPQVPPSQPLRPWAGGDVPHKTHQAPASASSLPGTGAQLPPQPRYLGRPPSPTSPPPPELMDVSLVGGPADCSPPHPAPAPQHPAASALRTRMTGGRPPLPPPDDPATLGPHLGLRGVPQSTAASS

[9] = target: DYRK4 (human) (UniProt Q9NR20)
[10] = target: EPHB1 (human) (UniProt P54762)
[11] = target: IKBKB (human) (UniProt O14920)
[12] = target: IRAK1 (human) (UniProt P51617)
Sequence of IRAK1 (human) (P51617 whole entry, looked up): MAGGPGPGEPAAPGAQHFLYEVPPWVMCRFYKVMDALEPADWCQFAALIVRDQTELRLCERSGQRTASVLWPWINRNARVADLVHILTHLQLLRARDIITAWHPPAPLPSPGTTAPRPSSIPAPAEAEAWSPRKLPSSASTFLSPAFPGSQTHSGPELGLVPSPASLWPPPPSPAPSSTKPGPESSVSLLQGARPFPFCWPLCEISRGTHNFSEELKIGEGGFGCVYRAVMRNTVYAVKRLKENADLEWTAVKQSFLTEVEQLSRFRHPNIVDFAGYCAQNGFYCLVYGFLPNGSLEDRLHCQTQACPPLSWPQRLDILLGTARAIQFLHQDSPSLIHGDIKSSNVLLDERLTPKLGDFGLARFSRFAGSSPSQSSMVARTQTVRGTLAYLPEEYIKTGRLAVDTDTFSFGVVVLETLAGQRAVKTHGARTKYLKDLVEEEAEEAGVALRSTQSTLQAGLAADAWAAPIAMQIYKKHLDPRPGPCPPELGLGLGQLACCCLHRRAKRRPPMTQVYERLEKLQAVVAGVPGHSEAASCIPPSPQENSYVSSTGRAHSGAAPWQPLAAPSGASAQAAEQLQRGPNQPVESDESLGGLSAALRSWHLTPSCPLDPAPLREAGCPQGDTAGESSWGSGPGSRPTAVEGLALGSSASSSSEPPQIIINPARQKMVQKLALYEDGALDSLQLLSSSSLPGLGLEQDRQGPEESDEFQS

[13] = target: JAK1 JH1 catalytic (human) (UniProt P23458)
[14] = target: JAK2 JH1 JH2 (human) (UniProt O60674)
[15] = target: MAP3K11 (human) (UniProt Q16584)
[16] = target: MAPK10 (human) (UniProt P53779)
[17] = target: MAPK11 (human) (UniProt Q15759)
[18] = target: MAPK8 (human) (UniProt P45983)
[19] = target: MAPKAPK5 (human) (UniProt Q8IW41)
[20] = target: MARK4 (human) (UniProt Q96L34)
Sequence of MARK4 (human) (Q96L34 whole entry, looked up): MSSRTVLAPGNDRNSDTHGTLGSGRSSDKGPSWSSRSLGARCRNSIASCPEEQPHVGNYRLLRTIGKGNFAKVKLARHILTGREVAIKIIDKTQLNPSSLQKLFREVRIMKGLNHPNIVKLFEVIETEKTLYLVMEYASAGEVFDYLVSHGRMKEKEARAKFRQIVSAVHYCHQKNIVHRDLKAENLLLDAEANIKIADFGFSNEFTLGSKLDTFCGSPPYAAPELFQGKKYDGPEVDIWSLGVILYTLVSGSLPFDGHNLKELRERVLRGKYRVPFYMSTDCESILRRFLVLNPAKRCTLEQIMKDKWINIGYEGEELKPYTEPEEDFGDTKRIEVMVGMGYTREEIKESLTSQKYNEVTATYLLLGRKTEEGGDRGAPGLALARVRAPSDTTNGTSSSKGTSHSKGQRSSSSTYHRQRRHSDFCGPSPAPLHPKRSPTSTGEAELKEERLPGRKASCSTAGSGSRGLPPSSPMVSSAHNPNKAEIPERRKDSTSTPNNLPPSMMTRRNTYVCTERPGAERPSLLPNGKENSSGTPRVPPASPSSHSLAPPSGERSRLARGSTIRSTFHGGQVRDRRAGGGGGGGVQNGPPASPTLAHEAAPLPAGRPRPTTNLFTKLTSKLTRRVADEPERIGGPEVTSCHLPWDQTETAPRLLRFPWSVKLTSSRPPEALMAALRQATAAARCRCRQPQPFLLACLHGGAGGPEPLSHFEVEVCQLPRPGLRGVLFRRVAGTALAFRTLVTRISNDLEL

[21] = target: NUAK1 (human) (UniProt O60285)
[22] = target: PAK4 (human) (UniProt O96013)
[23] = target: PAK7 (human) (UniProt Q9P286)
[24] = target: PIM3 (human) (UniProt Q86V86)
[25] = target: PRKCB2 (human) (UniProt P05771)
[26] = target: PRKCD (human) (UniProt Q05655)
[27] = target: PRKCH (human) (UniProt P24723)
[28] = target: PRKD2 (human) (UniProt Q9BZL6)
[29] = target: ROCK1 (human) (UniProt Q13464)
[30] = target: ROCK2 (human) (UniProt O75116)
Sequence of ROCK2 (human) (O75116 whole entry, looked up): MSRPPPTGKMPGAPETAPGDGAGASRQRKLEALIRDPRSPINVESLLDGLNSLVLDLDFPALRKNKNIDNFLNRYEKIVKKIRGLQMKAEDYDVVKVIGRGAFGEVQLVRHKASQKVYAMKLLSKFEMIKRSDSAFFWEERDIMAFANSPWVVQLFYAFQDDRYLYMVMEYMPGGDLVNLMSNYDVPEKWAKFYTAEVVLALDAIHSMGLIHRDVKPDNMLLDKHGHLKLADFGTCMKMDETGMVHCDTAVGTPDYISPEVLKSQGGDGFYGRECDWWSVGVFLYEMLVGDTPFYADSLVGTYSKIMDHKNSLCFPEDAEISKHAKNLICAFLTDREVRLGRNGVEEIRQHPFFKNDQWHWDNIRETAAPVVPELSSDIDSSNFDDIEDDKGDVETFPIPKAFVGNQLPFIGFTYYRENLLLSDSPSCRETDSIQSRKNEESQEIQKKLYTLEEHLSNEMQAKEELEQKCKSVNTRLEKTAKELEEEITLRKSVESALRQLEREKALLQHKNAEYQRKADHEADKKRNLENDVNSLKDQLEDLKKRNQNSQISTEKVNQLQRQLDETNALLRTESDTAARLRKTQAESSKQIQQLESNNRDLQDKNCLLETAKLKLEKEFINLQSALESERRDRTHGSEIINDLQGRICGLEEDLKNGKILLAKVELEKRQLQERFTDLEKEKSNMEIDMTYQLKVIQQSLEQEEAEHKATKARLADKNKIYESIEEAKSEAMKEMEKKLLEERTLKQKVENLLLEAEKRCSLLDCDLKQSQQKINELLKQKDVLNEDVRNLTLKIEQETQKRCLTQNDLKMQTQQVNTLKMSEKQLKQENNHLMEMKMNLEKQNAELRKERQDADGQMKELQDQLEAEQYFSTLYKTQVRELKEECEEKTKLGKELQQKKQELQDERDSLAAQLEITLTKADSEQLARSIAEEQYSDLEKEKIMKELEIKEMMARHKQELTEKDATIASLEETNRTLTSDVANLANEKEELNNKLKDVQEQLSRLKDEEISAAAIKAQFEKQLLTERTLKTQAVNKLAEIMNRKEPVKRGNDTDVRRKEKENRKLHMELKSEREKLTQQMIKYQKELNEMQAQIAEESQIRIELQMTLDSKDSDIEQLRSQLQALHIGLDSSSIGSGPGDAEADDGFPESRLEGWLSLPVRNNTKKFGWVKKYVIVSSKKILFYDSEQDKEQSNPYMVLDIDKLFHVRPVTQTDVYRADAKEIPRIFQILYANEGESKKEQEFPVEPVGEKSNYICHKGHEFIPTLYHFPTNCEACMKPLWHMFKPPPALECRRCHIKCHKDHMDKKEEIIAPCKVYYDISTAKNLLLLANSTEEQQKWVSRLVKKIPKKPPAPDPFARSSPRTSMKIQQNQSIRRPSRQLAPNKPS

[31] = target: ROS1 (human) (UniProt P08922)
[32] = target: SIK2 (human) (UniProt Q9H0K1)
[33] = target: STK17A (human) (UniProt Q9UEE5)
Sequence of STK17A (human) (Q9UEE5 whole entry, looked up): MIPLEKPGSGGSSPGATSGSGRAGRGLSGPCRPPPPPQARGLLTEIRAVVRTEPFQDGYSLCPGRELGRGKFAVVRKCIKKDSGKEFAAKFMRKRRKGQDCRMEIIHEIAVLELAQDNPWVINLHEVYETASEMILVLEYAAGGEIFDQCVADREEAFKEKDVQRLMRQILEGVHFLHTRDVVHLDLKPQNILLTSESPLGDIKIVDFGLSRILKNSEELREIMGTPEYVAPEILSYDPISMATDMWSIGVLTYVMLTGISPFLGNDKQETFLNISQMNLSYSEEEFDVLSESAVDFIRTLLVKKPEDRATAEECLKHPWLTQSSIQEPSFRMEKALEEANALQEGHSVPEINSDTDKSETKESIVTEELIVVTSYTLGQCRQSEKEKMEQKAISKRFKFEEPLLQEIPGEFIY

[34] = target: STK39 (human) (UniProt Q9UEW8)
[35] = target: TSSK2 (human) (UniProt Q96PF2)
[36] = target: ABL1 (human) (UniProt P00519)
Sequence of ABL1 (human) (P00519 whole entry, looked up): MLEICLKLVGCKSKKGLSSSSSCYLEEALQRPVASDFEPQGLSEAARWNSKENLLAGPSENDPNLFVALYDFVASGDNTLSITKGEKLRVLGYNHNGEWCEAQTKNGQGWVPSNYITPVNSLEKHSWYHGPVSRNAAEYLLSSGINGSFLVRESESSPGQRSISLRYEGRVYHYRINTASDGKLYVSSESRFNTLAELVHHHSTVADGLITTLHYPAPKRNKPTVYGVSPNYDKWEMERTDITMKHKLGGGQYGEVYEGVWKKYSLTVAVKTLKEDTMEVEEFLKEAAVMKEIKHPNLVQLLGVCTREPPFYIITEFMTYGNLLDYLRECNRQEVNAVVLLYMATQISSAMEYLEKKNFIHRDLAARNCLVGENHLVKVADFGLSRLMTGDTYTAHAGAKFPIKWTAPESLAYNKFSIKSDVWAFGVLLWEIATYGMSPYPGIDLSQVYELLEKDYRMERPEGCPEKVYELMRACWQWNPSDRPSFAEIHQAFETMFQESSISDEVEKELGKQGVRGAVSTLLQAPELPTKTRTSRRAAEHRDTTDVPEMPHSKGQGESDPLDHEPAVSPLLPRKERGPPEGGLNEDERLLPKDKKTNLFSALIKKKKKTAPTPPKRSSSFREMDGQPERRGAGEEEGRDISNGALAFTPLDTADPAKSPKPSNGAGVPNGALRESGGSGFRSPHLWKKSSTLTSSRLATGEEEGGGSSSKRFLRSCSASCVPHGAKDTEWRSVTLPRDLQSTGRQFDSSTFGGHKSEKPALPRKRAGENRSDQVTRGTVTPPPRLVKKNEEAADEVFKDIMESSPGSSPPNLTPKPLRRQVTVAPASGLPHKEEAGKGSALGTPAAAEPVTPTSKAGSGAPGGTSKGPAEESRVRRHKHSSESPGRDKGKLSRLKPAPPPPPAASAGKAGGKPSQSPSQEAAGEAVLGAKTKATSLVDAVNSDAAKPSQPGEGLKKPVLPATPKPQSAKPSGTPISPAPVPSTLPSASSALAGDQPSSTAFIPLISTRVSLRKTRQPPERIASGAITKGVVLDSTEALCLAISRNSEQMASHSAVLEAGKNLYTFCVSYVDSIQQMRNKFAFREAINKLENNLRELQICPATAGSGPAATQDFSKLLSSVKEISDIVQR

[37] = target: CSNK1G3 (human) (UniProt Q9Y6M4)
[38] = target: MAPK3 (human) (UniProt P27361)
[39] = target: CSNK1A1 (human) (UniProt P48729)
[40] = target: TBK1 (human) (UniProt Q9UHD2)

| Compound | residual activity [1] [%] | residual activity [3] [%] | residual activity [4] [%] | residual activity [6] [%] | residual activity [8] [%] | residual activity [9] [%] | residual activity [12] [%] | residual activity [13] [%] | residual activity [14] [%] | residual activity [15] [%] | residual activity [16] [%] | residual activity [17] [%] | residual activity [18] [%] | residual activity [19] [%] | residual activity [20] [%] | residual activity [21] [%] | residual activity [23] [%] | residual activity [24] [%] | residual activity [25] [%] | residual activity [26] [%] | further results |
| --- | --- | --- | --- | --- | --- | --- | --- | --- | --- | --- | --- | --- | --- | --- | --- | --- | --- | --- | --- | --- | --- |
| CCN(CC)CCNC(=O)c1c(C)[nH]c(/C=C2\C(=O)Nc3ccc(F)cc32)c1C | 61.8 | 11.6 | 81 | 26.3 | 60 | 104 | 31.4 | 71.9 | 88.8 | 68.4 | 99.5 | 99.9 | 91.8 | 82.7 | 24.7 | 2.75 | 81.6 | 56.8 | 104 | 95.1 | residual activity [2]: 106%; residual activity [5]: 29.2%; residual activity [7]: 92.2%; residual activity [10]: 53.6%; residual activity [11]: 81%; residual activity [22]: 80.9%; residual activity [27]: 112%; residual activity [28]: 21.1%; residual activity [29]: 99.7%; residual activity [30]: 72.1%; residual activity [31]: 71.6%; residual activity [32]: 27.8%; residual activity [33]: 26.7%; residual activity [34]: 87.4%; residual activity [35]: 72.9% |
| O=S(=O)(c1cccc2cnccc12)N1CCCNCC1 | 87.6 | 98.5 | 92.2 | 97.1 | 96.3 | 97.9 | 86.2 | 111 | 107 | 99.7 | 85.3 | 91.9 | 89.7 | 72.6 | 103 | 73.2 | 73.1 | 91.4 | 101 | 84.7 | residual activity [36]: 96.8%; residual activity [2]: 97.7%; residual activity [37]: 85%; residual activity [7]: 91.9%; residual activity [10]: 106%; residual activity [38]: 96.1%; residual activity [27]: 84%; residual activity [28]: 85%; residual activity [29]: 60.2%; residual activity [31]: 101%; residual activity [32]: 97.7%; residual activity [33]: 98.2%; residual activity [34]: 103%; residual activity [35]: 80.2% |
| Nc1ncnc2[nH]nc(Nc3ccc(F)cc3)c12 | 82.3 | 92.5 | 90.3 | 88.7 | 99.2 | 104 | 91.8 | 99 | 105 | 93.9 | 100 | 108 | 111 | 80.9 | 99.4 | 95.5 | 116 | 95 | 105 | 112 | residual activity [36]: 88.1%; residual activity [2]: 91.7%; residual activity [5]: 88%; residual activity [39]: 90.3%; residual activity [37]: 97.9%; residual activity [11]: 105%; residual activity [38]: 105%; residual activity [22]: 104%; residual activity [27]: 84.7%; residual activity [28]: 81.3%; residual activity [29]: 100%; residual activity [30]: 92.1%; residual activity [31]: 99.9%; residual activity [32]: 78.7%; residual activity [33]: 88.1%; residual activity [34]: 88.5%; residual activity [40]: 99.6%; residual activity [35]: 90.8% |
| CC(=O)c1ccc(N2CCOCC2)cc1O | 104 | 100 | 94.4 | 111 | 99.9 | 95.6 | 111 | 104 | 93.6 | 94.8 | 78.4 | 99.8 | 96.8 | 96.9 | 99.4 | 92.8 | 102 | 115 | 97.9 | 97.4 | residual activity [36]: 98.9%; residual activity [5]: 103%; residual activity [39]: 110%; residual activity [37]: 101%; residual activity [7]: 98.8%; residual activity [10]: 103%; residual activity [11]: 103%; residual activity [38]: 103%; residual activity [22]: 103%; residual activity [27]: 99.3%; residual activity [28]: 97.4%; residual activity [29]: 92.9%; residual activity [30]: 94.7%; residual activity [31]: 102%; residual activity [32]: 87%; residual activity [33]: 95.9%; residual activity [34]: 90.9%; residual activity [40]: 99.1%; residual activity [35]: 102% |
